Source: US20040019092A1, “Non-peptide somatostatin receptor ligands” (priority 2001, published 2004)

Experiments:
[1] = test system: prolactin secretion; assay: Unanesthetized estradiol primed male rats, oral by gavage: prolactin; assay type: in vivo, rat
Source text: (§1) Table 5 summarizes the results obtained in the estradiol primed male rats that received the compounds orally by gavage. These rats have stabilized elevated GH plasma levels as well as increased prolactin levels. In contrast to normal untreated rats, who's prolactin secretion is not sensitive to the inhibitory effect of somatostain, in these rats the prolactin secretion is inhibited to a similar degree as the GH secretion. Therefore, the inhibitory effect can be measured on 2 different parameters, GH and prolactin. The mean enteral absorption and activity of the respective compounds are shown.

[2] = test system: GHRH stimulated GH secretion; assay: GH secretion, rat in urethan anesthesia, i.v. single injection + repeated GHRH stimulation; assay type: in vivo
[3] = test system: GH secretion; assay: GH secretion in vivo, rat, subcutaneous application, 1 h (basal); settings: rat, basal GH secretion, 1 h after subcutaneous application
Protocol: (§2) Animals, anesthesia: Male rats of a Sprague Dawley strain (Ico:OFA-SD, Iffa-Credo, F-Lyon) of 200-300 g body weight were used. They were kept under standardized conditions and were anesthetized with pentobarbital-sodium (Siegfried, CH Zofingen), 60 mg/kg i.p. for subcutaneous and intraduodenal applications. Animals designed for an infusion experiment were anesthetized with urethane (Siegfried, CH Zofingen), 1.2 g/kg i.p.
(§3) Compounds: The compounds were dissolved, optionally with the aid of one or more of the following adjuncts:
(§4) Stock solutions of the compounds were prepared in water with the addition of the necessary adjunct(s). Further dilutions were prepared allowing 5 mL/kg for subcutaneous application, 2 mL for intraduodenal (i.d.) application or 4.5 mL/kg for intravenous infusion. The solutions for the intravenous application/infusion were made isotonic by addition of glucose to a final concentration of 5%.
(§5) Applications were made, or, in the case of infusion, started, approximately 10 minutes after induction of anesthesia. No further treatment followed subcutaneous or intraduodenal application. Ten, twenty-five and fifty-five minutes after start of the intravenous infusion the GH secretion was stimulated with repeated intravenous injections of the potent GHRH analog, D-Ala2 GHRH1-29NH2, 1 μg/kg.
(§6) One hour after subcutaneous or intraduodenal application of the compounds, blood was collected from the trunk after decapitation. In the case of application by infusion, 5 minutes after each application of GHRH, a blood sample of 0.8 mL was taken from a V. jugularis and mixed with EDTA (Eppendorf tubes TOM14, Milian, CH Geneva). The blood samples were kept on ice and spun in a cooled centrifuge. The serum or plasma was separated and frozen.
(§7) Statistics: In each experiment, 4-5 animals were used per dose, with 6 to 8 animals as the control group that received the vehicle. The GH serum/plasma levels were averaged, the mean of the treated groups expressed in percent of the control group and the ID50-value for the inhibition of the secretion was determined graphically (log-probit) for each experiment. In most experiments with enteral (intraduodenal) application only 1 dose, 10 mg/kg, was given. […] Only inhibitions between 20 and 80% were considered reliable.
(§8) Two to four experiments were performed. In the case of proper dose response curves, allowing the determination of an ID50 values were averaged logarithmically. In the cases of single dose-experiments, the GH value in percent of control were averaged logarithmically and the ID50 for this value was taken from the table. ID50 values determined at the different time points during the infusion were averaged and this value was included in the tables.

[4] = test system: GH secretion; assay: Unanesthetized estradiol primed male rats, oral by gavage: GH; assay type: in vivo, rat
Protocol: The inhibitory effect of the compounds on GH release may also be examined after oral application to male rats with oestradiol implants. This test is carried out as follows.
A loop (length 50 mmØ3 mm) of silastic with 50 mg of oestradiol is implanted under the dorsal skin of anaesthetized male OFA rats that have a weight of ca. 300 g. At various times (1 to 6 months later), these animals, in a fasted state, are used repeatedly for tests. The test substances are active in this test at doses from 0.1 to 5 mg/kg, when GH level in the blood serum is determined by radio-immunoassay 1 and 2 hours after oral administration.
as §1

[5] = test system: GHRH stimulated GH secretion; assay: GH secretion, rat in urethan anesthesia, intraduodenal + repeated GHRH stimulation; assay type: in vivo; settings: urethan
Source text: No further treatment followed subcutaneous or intraduodenal application. […] This value has been determined in a total of four independent experiments. […] However, in further studies compound 47 has also been tested by the enteral route of administration after repeated stimulation of the GH secretion by GHRH. […] With most of these selected compounds additional in vivo experiments in other models (intraduodenal application followed by repeated stimulation of the GH secretion by GHRH, oral application by gavage of unanesthetized, estradiol primed rats) were performed. Table 4 summarizes data obtained for the inhibition of the stimulated GH secretion after subcutaneous, intraduodenal and intravenous application and the inhibitory effects obtained for different time points during intravenous infusion of selected hydantoins. […] [table]

[6] = test system: GH secretion; assay: GH secretion in vivo, rat, intraduodenal (enteral) application, 1 h (basal)
Protocol: as §2, §3, §4, §5, §6, §7, §8

[7] = test system: GHRH stimulated GH secretion; assay: GH secretion in vivo, rat, intravenous infusion with repeated GHRH stimulation
Protocol: as §2, §4, §5, §6, §7, §8

[8] = test system: GHRH stimulated GH secretion; assay: GH secretion, rat in urethan anesthesia, subcutaneous + repeated GHRH stimulation; assay type: in vivo
Protocol: as §5
With most of these selected compounds additional in vivo experiments in other models (intraduodenal application followed by repeated stimulation of the GH secretion by GHRH, oral application by gavage of unanesthetized, estradiol primed rats) were performed. Table 4 summarizes data obtained for the inhibition of the stimulated GH secretion after subcutaneous, intraduodenal and intravenous application and the inhibitory effects obtained for different time points during intravenous infusion of selected hydantoins.

[9] = estradiol implant male rats, oral by gavage, 1 hour

SMILES: Cc1cccc2c(CC3C(=O)N(CCCCCN)C(=O)N3S(=O)(=O)c3ccc(Oc4ccc(O)c(Cl)c4)c(C(=O)N(C)C)c3)c[nH]c12 (racemic) [(+/−)-43]
- PROLACT 1 H ID50 ([1]; estradiol implant male rats, oral by gavage, 1 hour, ø = no effect at this dose): 1.8 mg/kg
- oral ID50 (prolactin) ([1]; estradiol primed male rats): 1.8 mg/kg
- I.V. SINGLE INJECTION + GHRH ID50 15′ ([2]; 15′): 0.0125 mg/kg
- I.V. SINGLE INJECTION + GHRH ID50 30′ ([2]; 30′): 0.0312 mg/kg
- I.V. SINGLE INJECTION + GHRH ID50 60′ ([2]; 60′): 0.055 mg/kg
- I.V. SINGLE INJECTION + GHRH ID50 120′ ([2]; 120′): 0.1241 mg/kg
- GH vivo s.c. 1 h ID50 [3]: 0.00379 mg/kg
- GH 1 H ID50 [4, 9]: 3 mg/kg
- MEAN ID50 (GH and prolactin) [4, 9]: 2.324 mg/kg
- oral ID50 (GH) ([4]; estradiol primed male rats): 3 mg/kg
- INTRADUODENAL + GHRH ID50 15′ ([5]; 15′, ø = no effect at this dose): 1.165 mg/kg
- INTRADUODENAL + GHRH ID50 30′ ([5]; 30′): 1.646 mg/kg
- INTRADUODENAL + GHRH ID50 60′ ([5]; 60′): 1.419 mg/kg
- INTRADUODENAL + GHRH ID50 120′ ([5]; 120′, ø = no effect at this dose): 2.872 mg/kg
- GH vivo i.d. 1 h ID50 ([6]; basal GH secretion, 1 h after intraduodenal application, mostly approximate ID50 from single 10 mg/kg dose, Ø = no effect at this dose, > = extrapolated value): 3.417 mg/kg
- enteral ID50 (GH secretion) ([6]; enteral (intraduodenal) application): 3.4 mg/kg
- inhibition at 10 mg/kg ([6]; intraduodenal, enteral administration of 10 mg/kg): 68%
- INFUS. + GHRH ID50 MEAN ([7]; Table 4, mean of infusion time points): 0.00372 mg/kg
- INFUS. + GHRH ID50 15′ ([7]; Table 4, urethan, 15′ of infusion): 0.00644 mg/kg
- INFUS. + GHRH ID50 30′ ([7]; Table 4, urethan, 30′ of infusion): 0.00358 mg/kg
- INFUS. + GHRH ID50 60′ ([7]; Table 4, urethan, 60′ of infusion): 0.00224 mg/kg
- GH vivo Inf + GHRH ID50 (mean of time points) ([7]; urethane, i.v. infusion, GHRH stimulated): 3.72 µg/kg/h
- SUBCUTANEOUS + GHRH ID50 15′ ([8]; 15′): 0.00705 mg/kg
- SUBCUTANEOUS + GHRH ID50 30′ ([8]; 30′): 0.00795 mg/kg
- SUBCUTANEOUS + GHRH ID50 60′ ([8]; 60′): 0.01135 mg/kg
- SUBCUTANEOUS + GHRH ID50 120′ ([8]; 120′): 0.01569 mg/kg
